Converted amounts (≈) assume the structure as drawn. “And” between values parts separate entries of the source, which are not always exact repeats. Identical values can stand only once.
Columns and labels:
[1] = Water solubility by UV spectrophotometric method; format: physicochemical; details: for solubility: water, saturated solution, Table 1, read-out: Solubility by UV method
Procedure: The water solubilities of several isothiazolones were determined by UV spectrophotometric measurements of saturated aqueous solution of each compound in comparison with measurement of solutions of carefully prepared known concentration as outlined in the following example.
DETERMINATION OF SOLUBILITY OF 5-CHLORO-2-(4-FLUOROPHENYL)-4-METHYL-3-ISOTHIAZOLONE OF EXAMPLE 115
A sample of 5-chloro-2-(4-fluorophenyl)-4-methyl-3-isothiazolone (0.0406 g., 1.67 × 10^-4 mole) was dissolved in 50 ml. of methanol. A 5 ml. aliquot of the solution was diluted to 1000 ml. with deionized water, providing a solution of 1.67 × 10^-5 moles/liter concentration. An ultraviolet spectrum of this solution was run using a 10 cm. cell. The absorbance (As) at the wave length of maximum absorption (279 nm.) was 1.208. The molar absorptivity, AM, was calculated from the relationship
where b and c are path length or cell thickness and concentration respectively. Thus, AM was [formula]
Another sample of the compound (0.3-0.5 g.) was stirred vigorously in 40 ml. of deionized water for approximately 72 hrs. to give a saturated solution. The mixture was filtered through very fine filter paper (Whatman No. 50) to remove all suspended solid. Small portions of the filtrate were diluted with water by various factors until an approximately mid-scale absorbance was obtained upon running an ultraviolet spectrum. Such an absorbance was obtained at a dilution of 10. The absorbance was 0.975 in a 10 cm. cell. Using the value for AM obtained earlier, in the equation

barnacle = experiment: Membrane Diffusion Raft Trials, barnacle control; format: in vivo, barnacles; details: membrane test, average 15 to 16 weeks of immersion
Excerpt: (§1) 1). FIELD TESTS: - Membrane Diffusion Raft Trials
(§2) A specially constructed raft provides three types
(§3) a). Waterline Well illuminated, aerated
(§4) b). Flats Poorly illuminated deeper
(§5) A known quantity of the test compound is placed into a cylindrical plastic container whose open end is then covered with a membrane of known porosity; the complete unit is attached to the appropriate raft panel so that the poison can freely diffuse into the free water layer around it. Regular inspections, recording time and quantity of settlement, allow a life history of each membrane trial to be constructed. Each raft panel contains 35 compounds to be evaluated together with 4 standard poisons and 1 non-toxic membrane for control.
(§6) The behavior on the raft can thus be compared with that of the standard poisons and the non-toxic control. At normal loading a membrane over the standard poisons would be free from macro-fouling after six months immersion. Compounds showing selective effects against restricted groups of fouling organisms also show up by membrane testing.
(§7) After the completion of membrane tests the contents of all containers are checked visually for poison loss. An empty container indicates an unacceptably high solubility for long term effectiveness; where the poison loss is low the compound is tested in one of two ways depending on its performance against fouling.
(§8) In the membrane tests, the results of approximately 140 compounds evaluated appear in Table 1. The symbols "0" means no detactable effect, the symbol "+" indicates the compound is active against the given fouling organism, and the symbol "++" means that the compound appears to be effective over at least about a four month period for essentially preventing fouling activity by the given organism. In the Table, "weed" designates a grass-like algal growth common in sea water.
(§9) Membrane Test results are of an average 15 to 16 weeks of immersion,
(§10) ^a 0 = none, + = some, + + = effective.
^f The 1975 Spring settlement of barnacles was very meager and the […]

weed = experiment: Membrane Diffusion Raft Trials, weed control; format: in vivo, grass-like algal growth common in sea water; details: membrane test, average 15 to 16 weeks of immersion
Excerpt: as §1, §2, §3, §4, §5, §6, §7, §8, §9, §10

[2] = Amount of toxicant remaining in the test container after membrane diffusion raft tests; format: physicochemical; set-up: key: 0: empty or trace; +: some; + +: ample; details: after completion of membrane diffusion raft tests
Excerpt: as §5, §7
^b Amount of toxicants remaining in the test container after the
completion of the membrane diffusion raft tests: 0 = empty or trace, + =

SMILES	solubility [1] [µg/mL]	Barnacle Control (barnacle)	Weed Control (weed)	Contents at the end of test (amount of toxicants remaining in the test container) [2]	solubility thermodynamic at 72 h ([1]; deionized water, stirred approximately 72 hrs., UV, read-out: concentration of the saturated solution)	solubility at 72 h ([1]; deionized water, stirred approximately 72 hrs., UV, read-out: solubility of this compound) [µg/mL]
CCCCCCC(C)n1sc(Cl)cc1=O (stereo not drawn) [Example 18]	175 (≈ 706 µM)	–	–	–	–	–
Cc1c(Cl)sn(-c2cc(Cl)cc(Cl)c2)c1=O [Example 136]	3 (≈ 10.2 µM)	–	–	–	–	–
Cc1c(Cl)sn(-c2ccc(C(F)(F)F)cc2)c1=O [Example 130]	7 (≈ 23.8 µM)	–	–	–	–	–
O=c1cc(Cl)sn1-c1ccc(Cl)c(C(F)(F)F)c1 [Example 40]	–	0	+	+ +	–	–
CCCCC(CC)Cn1sc(Cl)c(C)c1=O (stereo not drawn) [Example 103]	102 (≈ 390 µM)	–	–	–	–	–
CC(c1ccccc1)n1sc(Cl)cc1=O (stereo not drawn) [Example 30]	420 (≈ 1750 µM)	–	–	–	–	–
Cn1sc(Br)c(Br)c1=O [Example 94]	–	0	+	0	–	–
Cc1c(Cl)sn(-c2ccc(Cl)c(C(F)(F)F)c2)c1=O [Example 131]	–	0	0	+ +	–	–
O=c1c(Br)csn1CCc1ccccc1 [Example 52]	–	0	0	+	–	–
Cc1c(Cl)sn(C)c1=O [Example 100]	–	0	0	0	–	–
Cc1c(Cl)sn(-c2ccc(Cl)cc2Cl)c1=O [Example 135]	4 (≈ 13.6 µM)	–	–	–	–	–
CCCCCCCCCCn1sc(Br)c(Br)c1=O [Example 96]	–	0	0	+ +	–	–
Cc1c(Cl)sn(-c2ccc(Oc3ccccc3)cc2)c1=O [Example 124]	–	0	0	+ +	–	–
CC(C)CCCC(C)n1sc(Cl)cc1=O (stereo not drawn) [Example 19]	190 (≈ 767 µM)	–	–	–	–	–
Cc1c(Cl)sn(-c2ccc(Br)cc2)c1=O [Example 116]	7 (≈ 23 µM)	–	–	–	–	–
Cc1csn(-c2ccc(Cl)c(Cl)c2)c1=O [Example 140]	–	0	0	+ +	–	–
CCCCCCCCCCCCn1scc(Br)c1=O [Example 50]	–	+	0	+ +	–	–
CCC(C)CC(CC)n1sc(Cl)cc1=O (stereo not drawn) [Example 20]	300 (≈ 1210 µM)	–	–	–	–	–
Cc1cc(-n2sc(Cl)c(C)c2=O)ccc1Br [Example 133]	–	0	0	+ +	–	–
O=c1c(Cl)c(Cl)sn1-c1cccc(Cl)c1 [Example 76]	–	0	+	+ +	–	–
CCCCCCCCCCCCn1sc(Br)c(Br)c1=O [Example 97]	–	0	0	+ +	–	–
CC(C)CCCC(C)n1sc(Cl)c(Cl)c1=O (stereo not drawn) [Example 61]	55 (≈ 195 µM)	–	–	–	–	–
O=c1c(Br)c(Cl)sn1C1CCCCC1 [Example 90]	45 (≈ 152 µM)	–	–	–	–	–
CCCCCCCCCCCCCCCCn1sc(Cl)cc1=O [Example 25]	–	0	0	+ +	–	–
CC(c1ccccc1)n1sc(Cl)c(Cl)c1=O (stereo not drawn) [Example 70]	50 (≈ 182 µM)	–	–	–	–	–
Cc1c(Cl)sn(-c2ccccc2Cl)c1=O [Example 112]	23 (≈ 88.4 µM)	–	–	–	–	–

SMILES	solubility [1] [µg/mL]	Barnacle Control (barnacle)	Weed Control (weed)	Contents at the end of test (amount of toxicants remaining in the test container) [2]	solubility thermodynamic at 72 h ([1]; deionized water, stirred approximately 72 hrs., UV, read-out: concentration of the saturated solution)	solubility at 72 h ([1]; deionized water, stirred approximately 72 hrs., UV, read-out: solubility of this compound) [µg/mL]
CCCCCCCCCCCCCCn1sc(Cl)c(C)c1=O [Example 106]	–	0	0	+ +	–	–
O=c1c(Cl)c(Cl)sn1-c1cc(Cl)cc(Cl)c1 [Example 77]	–	0	0	+ +	–	–
O=c1cc(Cl)sn1-c1ccc(Cl)c(Cl)c1 [Example 37]	–	+	+	+ +	–	–
Cc1c(Cl)sn(-c2ccc(F)cc2)c1=O [Example 115, 5-chloro-2-(4-fluorophenyl)-4-methyl-3-isothiazolone]	35 (≈ 144 µM)	–	–	–	135 µM and 32.8 µg/mL	33 (≈ 135 µM)
O=c1c(Br)c(Cl)sn1CCc1ccc(Cl)cc1 [Example 92]	–	0	0	+	–	–
CCC(C)CC(CC)n1sc(Cl)c(Cl)c1=O (stereo not drawn) [Example 62]	85 (≈ 301 µM)	–	–	–	–	–
O=c1c(Cl)csn1Cc1ccc(Cl)cc1 [Example 46]	–	0	+	+ +	–	–
O=c1ccsn1-c1ccccc1 [Example 11]	–	0	0	0	–	–
Cc1ccc(-n2sc(Cl)c(C)c2=O)cc1 [Example 120]	60 (≈ 250 µM)	–	–	–	–	–
CCCCCCCCCCn1sc(Cl)c(Br)c1=O [Example 89]	–	0	0	+ +	–	–
CC(C)(C)CC(C)(C)n1sc(Cl)cc1=O [Example 21]	200 (≈ 807 µM)	–	–	–	–	–
CC1CC(n2sc(Cl)cc2=O)CC(C)(C)C1 (stereo not drawn) [Example 28]	185 (≈ 712 µM)	–	–	–	–	–
CCCCCCCCn1sc(Br)c(C)c1=O [Example 102]	–	+	+	0	–	–
O=c1cc(Cl)sn1Cc1ccccc1 [Example 31]	390 (≈ 1730 µM)	–	–	–	–	–
CCCCCCCCCCCCCCn1sc(Cl)cc1=O [Example 24]	–	+ +	0	+ +	–	–
O=c1ccsn1CCc1ccc(Cl)cc1 [Example 9]	–	0	0	0	–	–
Cc1c(Cl)sn(-c2cccc(C(F)(F)F)c2)c1=O [Example 129]	12 (≈ 40.9 µM)	–	–	–	–	–
CCCCCCCCCCCCn1sc(Cl)c(C)c1=O [Example 105]	–	+	0	+ +	–	–
O=c1c(Br)csn1-c1ccc(Cl)cc1 [Example 54]	–	0	0	+ +	–	–
Cc1csn(-c2cccc(Cl)c2)c1=O [Example 138]	–	0	+	+ +	–	–
CC1CC(n2sc(Cl)c(Cl)c2=O)CC(C)(C)C1 (stereo not drawn) [Example 68]	45 (≈ 153 µM)	–	–	–	–	–
CCCCc1ccc(-n2sc(Cl)c(Cl)c2=O)cc1 [Example 83]	–	+	0	+ +	–	–
CCCCCCC(C)n1sc(Cl)c(Cl)c1=O (stereo not drawn) [Example 60]	50 (≈ 177 µM)	–	–	–	–	–
O=c1c(Cl)c(Cl)sn1-c1ccc([N+](=O)[O-])cc1 [Example 82]	–	0	0	+ +	–	–
Cc1ccc(-n2sc(Cl)c(Cl)c2=O)cc1Cl [Example 81]	–	0	0	+ +	–	–
CCCCCCCCCCCCCCCCCCn1sccc1=O [Example 8]	–	0	0	+ +	–	–

Source: patent US4127687A, “Prevention of fouling of marine structures such as boat hulls” (Rohm and Haas Company, priority 1976, dated 1978)
